Assays:
Type in all cases: in vivo
[1] = tested on: Plutella xylostella (diamond back moth); assay: Plutella xylostella L2 larvae test on artificial diet; conditions: 144 h, 200 ppm (concentration in well 18 ppm), 6 days, larval mortality and growth regulation
Description: (§1) 24-well microtiter plate (MTP) with artificial diet was treated with test solutions at an application rate of 200 ppm (concentration in well 18 ppm) by pipetting. After drying, the MTPs were infested with L2 larvae (7-12 per well). After an incubation period of 6 days, samples were checked for larval mortality and growth regulation.

[2] = tested on: Heliothis virescens (tobacco budworm); assay: Heliothis virescens egg test on artificial diet; conditions: 96 h, 200 ppm (concentration in well 18 ppm), eggs 0-24 h old, 4 days, egg mortality, larval mortality, growth regulation
Description: Eggs (0-24 h old) were placed in 24-well microtiter plate on artificial diet and treated with test solutions at an application rate of 200 ppm (concentration in well 18 ppm) by pipetting. After an incubation period of 4 days, samples were checked for egg mortality, larval mortality, and growth regulation.

[3] = tested on: Spodoptera littoralis (Egyptian cotton leafworm); assay: Spodoptera littoralis cotton leaf disc spray test; conditions: foliar, 72 h, cotton leaf discs sprayed at 200 ppm, 5 L1 larvae, mortality, feeding behavior, growth regulation 3 days after treatment
From the text: Cotton leaf discs were placed on agar in a 24-well microtiter plate and sprayed with test solutions at an application rate of 200 ppm. After drying, the leaf discs were infested with 5 L1 larvae. The samples were checked for mortality, feeding behavior, and growth regulation 3 days after treatment (DAT).

[4] = tested on: Diabrotica balteata (corn root worm); assay: Diabrotica balteata L2 larvae test on artificial diet; conditions: 120 h, 200 ppm (concentration in well 18 ppm), 5 days, larval mortality and growth regulation
Description: as §1, with “A 24-well” for “24-well”, “(6-10” for “(7-12”, “5” for “6”
as §1, with “A 24-well” for “24-well”, “12.5” for “200”, “MTP's” for “MTPs”, “(6-10” for “(7-12”, “5” for “6”

[5] = tested on: Tetranychus urticae (two-spotted spider mite); assay: Tetranychus urticae bean leaf disc spray test; conditions: foliar, 192 h, bean leaf discs sprayed at 200 ppm, mixed ages, egg, larval and adult mortality 8 days later
From the text: Bean leaf discs on agar in 24-well microtiter plates were sprayed with test solutions at an application rate of 200 ppm. After drying, the leaf discs are infested with mite populations of mixed ages. 8 days later, discs are checked for egg mortality, larval mortality, and adult mortality. […]

Measured: pest or weed control at 200 ppm

Cc1cc(C2=CC(c3cc(Cl)cc(Cl)c3)(C(F)(F)F)OC2)ccc1C(=O)NCC(F)(F)F (centres unmarked) [Compound A3]
≥ 80%: all assays above

COc1ccc(CNC(=O)c2ccc(C3=CC(c4cc(Cl)cc(Cl)c4)(C(F)(F)F)OC3)cc2C)cc1 (centres unmarked) [Compound A10]
not listed: [4]
≥ 80%: all other assays above

Cc1csc(NC(=O)c2ccc(C3=CC(c4cc(Cl)cc(Cl)c4)(C(F)(F)F)OC3)cc2C)n1 (centres unmarked) [Compound A11]
not listed: [4]
≥ 80%: all other assays above

Cc1cc(C2=CC(c3cc(Cl)cc(Cl)c3)(C(F)(F)F)OC2)ccc1C(=O)NC1(C)CSC1 (centres unmarked) [Compound A12]
not listed: [4]
≥ 80%: all other assays above

Cc1cc(C2=CC(c3cc(Cl)cc(Cl)c3)(C(F)(F)F)OC2)ccc1C(=O)NC1C[S+]([O-])C1 (centres unmarked) [Compound A13]
≥ 80%: [2] | [3] | [5]

Cc1cc(C2=CC(c3cc(Cl)cc(Cl)c3)(C(F)(F)F)OC2)ccc1C(=O)NC1CCC1 (centres unmarked) [Compound A14]
≥ 80%: [2] | [3] | [5]

Cc1cc(C2=CC(c3cc(Cl)cc(Cl)c3)(C(F)(F)F)OC2)ccc1C(=O)NCc1nc2ccccc2[nH]1 (centres unmarked) [Compound A18]
not listed: [3]
≥ 80%: all other assays above

CCC(CO)NC(=O)c1ccc(C2=CC(c3cc(Cl)cc(Cl)c3)(C(F)(F)F)OC2)cc1C (centres unmarked) [Compound A28]
≥ 80%: [3] | [5]

Cc1cc(C2=CC(c3cc(Cl)cc(Cl)c3)(C(F)(F)F)OC2)ccc1C(=O)NCc1cccnc1 (centres unmarked) [Compound A35]
≥ 80%: all assays above

Cc1cc(C2=CC(c3cc(Cl)cc(Cl)c3)(C(F)(F)F)OC2)ccc1C(=O)NC(C)c1ccccc1 (centres unmarked) [Compound A38]
not listed: [4]
≥ 80%: all other assays above

Cc1cc(C2=CC(c3cc(Cl)cc(Cl)c3)(C(F)(F)F)OC2)ccc1C(=O)NC1CC(C)(C)N(C)C(C)(C)C1 (centres unmarked) [Compound A40]
≥ 80%: [5]

Cc1cc(C2=CC(c3cc(Cl)cc(Cl)c3)(C(F)(F)F)OC2)ccc1C(=O)NCc1cccc(Cl)c1 (centres unmarked) [Compound A43]
≥ 80%: [3] | [4] | [5]

CC(=O)NCCNC(=O)c1ccc(C2=CC(c3cc(Cl)cc(Cl)c3)(C(F)(F)F)OC2)cc1C (centres unmarked) [Compound A45]
≥ 80%: [5]

Cc1cc(C2=CC(c3cc(Cl)cc(Cl)c3)(C(F)(F)F)OC2)ccc1C(=O)NCc1ccc(-n2cccn2)cc1 (centres unmarked) [Compound A46]
not listed: [3]
≥ 80%: all other assays above

CSCCNC(=O)c1ccc(C2=CC(c3cc(Cl)cc(Cl)c3)(C(F)(F)F)OC2)cc1C (centres unmarked) [Compound A49]
≥ 80%: all assays above

Cc1cc(C2=CC(c3cc(Cl)cc(Cl)c3)(C(F)(F)F)OC2)ccc1C(=O)NCc1ccc(Cl)nc1 (centres unmarked) [Compound A52]
not listed: [4]
≥ 80%: all other assays above

Cc1cc(C2=CC(c3cc(Cl)cc(Cl)c3)(C(F)(F)F)OC2)ccc1C(=O)Nc1ccccc1Cl (centres unmarked) [Compound A56]
not listed: [3]
≥ 80%: all other assays above

Cc1cc(C2=CC(c3cc(Cl)cc(Cl)c3)(C(F)(F)F)OC2)ccc1C(=O)Nc1cccc2ncccc12 (centres unmarked) [Compound A57]
≥ 80%: all assays above

COc1ccc(NC(=O)c2ccc(C3=CC(c4cc(Cl)cc(Cl)c4)(C(F)(F)F)OC3)cc2C)c(OC)c1 (centres unmarked) [Compound A58]
not listed: [3]
≥ 80%: all other assays above

CSc1ccccc1NC(=O)c1ccc(C2=CC(c3cc(Cl)cc(Cl)c3)(C(F)(F)F)OC2)cc1C (centres unmarked) [Compound A63]
≥ 80%: [1] | [4] | [5]

Cc1cc(C2=CC(c3cc(Cl)cc(Cl)c3)(C(F)(F)F)OC2)ccc1C(=O)Nc1ccc2ncsc2c1 (centres unmarked) [Compound A64]
not listed: [5]
≥ 80%: all other assays above

Cc1cc(C2=CC(c3cc(Cl)cc(Cl)c3)(C(F)(F)F)OC2)ccc1C(=O)NCC1CCS1 (centres unmarked) [Compound A80]
≥ 80%: all assays above

O=C(NCc1ccccc1)c1ccc(C2=CC(c3cc(Cl)cc(Cl)c3)(C(F)(F)F)OC2)nc1 (centres unmarked) [Compound B9]
≥ 80%: [1] | [5]

Cc1nc(C2=CC(c3cc(Cl)cc(Cl)c3)(C(F)(F)F)OC2)ccc1C(=O)NCC(F)(F)F (centres unmarked) [Compound C1]
not listed: [5]
≥ 80%: all other assays above

CCCCNC(=O)c1ccc(C2=CC(c3cc(Cl)cc(Cl)c3)(C(F)(F)F)OC2)nc1C (centres unmarked) [Compound C3]
not listed: [5]
≥ 80%: all other assays above

Cc1nc(C2=CC(c3cc(Cl)cc(Cl)c3)(C(F)(F)F)OC2)ccc1C(=O)NCc1ccccc1 (centres unmarked) [Compound C9]
not listed: [5]
≥ 80%: all other assays above

Cc1nc(C2=CC(c3cc(Cl)cc(Cl)c3)(C(F)(F)F)OC2)ccc1C(=O)NCc1ccccc1F (centres unmarked) [Compound C10]
not listed: [5]
≥ 80%: all other assays above

Cc1nc(C2=CC(c3cc(Cl)cc(Cl)c3)(C(F)(F)F)OC2)ccc1C(=O)NC(C)c1ccccc1 (centres unmarked) [Compound C11]
not listed: [5]
≥ 80%: all other assays above

COc1ccc(CNC(=O)c2ccc(C3=CC(c4cc(Cl)cc(Cl)c4)(C(F)(F)F)OC3)nc2C)cc1 (centres unmarked) [Compound C12]
not listed: [5]
≥ 80%: all other assays above

Cc1cc(C2=CC(c3cc(Cl)cc(Cl)c3)(C(F)(F)F)OC2=O)ccc1C(=O)NC1(C)CSC1 (centres unmarked) [Compound E16]
≥ 80%: [5]

O=C(NC1CS(=O)(=O)C1)c1ccc(C2=CC(c3cc(Cl)cc(Cl)c3)(C(F)(F)F)OC2)nc1Cl (centres unmarked) [Compound F2, 2-Chloro-6-[5-(3,5-dichloro-phenyl)-5-trifluoromethyl-2,5-dihydro-furan-3-yl]-N-(1,1-dioxo-1lambda*6*-thietan-3-yl)-nicotinamide]
not listed: [4]
≥ 80%: all other assays above

N#Cc1cc(C2=CC(c3cc(Cl)cc(Cl)c3)(C(F)(F)F)OC2)ccc1-n1cncn1 (centres unmarked) [Compound G1, 5-[5-(3,5-Dichloro-phenyl)-5-trifluoromethyl-2,5-dihydro-furan-3-yl]-2-[1,2,4]triazol-1-yl-benzonitrile]
not listed: [5]
≥ 80%: all other assays above
